From article PMC10541198, “Specific quinone reductase 2 inhibitors reduce metabolic burden and reverse Alzheimer’s disease phenotype in mice” (The Journal of Clinical Investigation, 2023)
Values joined by “and” are separate entries in the source; they are usually repeats but may differ in a detail not shown here. Identical values can stand only once.

Tested on: QR2
Assay: Immunoblot of QR2 in HCT116 cells after 4-day treatment
Format: cell-based, human
Details: 2 μM, 4 days; for QR2 expression, mean ± SEM (vehicle = 1): HCT116, n=6
Procedure: To establish direct target engagement and cell membrane permeability, a cellular thermal shift assay (CETSA) was carried out, using leading QR2is YB’s-537, 800, and 808. Following a 1 hour preincubation with 5 μM of the QR2is or vehicle, thermal aggregation curves (Taggs) of QR2 expressed in HEK293T were measured in increasing temperatures. All QR2is increased QR2 thermal stability compared with vehicle (Supplemental Figure 2A). Based on the Tagg curves we selected 73°C for isothermal dose-response fingerprint (IDTRF) experiments (Supplemental Figure 2B). The ITDRF allowed the relative quantification of the binding of each of the QR2is to QR2, measured as the EC50 (Figure 3A). […] We evaluated the safety of the QR2is using cell toxicity and viability assays. […] Cell viability was assessed by XTT assay in HEK239T cells, using a dose response, with 3- or 24-hour incubations of the leading QR2is. No sign of toxicity was seen (Figure 3C). Next, we wanted to assess if, similar to QR2 KO, QR2is can reduce cellular ROS in HCT116 cells and see whether any observable effect is occluded in QR2Δ cells. […] We then assessed WT HCT116 cells by immunoblot (Supplemental Figure 2, C and D), after being treated with YB-800 (2 μM) for 4 consecutive days.
H2DCFDA ROS assay was carried out according to established protocols, with some adjustment (Supplemental Methods) ([6]). Cell toxicity was measured via ATP depletion (CellTiter Glo, Promega) in THLE-2 cells (ATCC, CRL-2706), following 72 hours of exposure to the test compounds, and cell viability was assessed using XTT assay (Biological Industries) according to manufacturers protocols. […]
(Ser51) eIF2α (1:1000, Cell Signaling, 9721), diluted in blocking buffer. The ne xt day, the m em br anes w e re washed three times in TBST and incubated at room temperature (RT) for 1 h with 1:10,000 secondary antibodies conjugated to horseradish peroxidase, and following a further t hr e e times washes in TBSTwere immunoblotted with Westar Supernova (Cyanagen), imaged using a charge-coupled device camera and analyzed using Quantity One software (Bio-Rad). […]

Which results are given for `Cc1ccc(-c2cn3cccc(C)c3n2)cc1S(=O)(=O)N1CCC(C)CC1` [YB-800]?
QR2 expression (replicates) (HCT116): 1.514 and 1.125 and 1.62 and 0.8886 and 0.7618 and 1.183; QR2 expression, mean ± SEM (vehicle = 1): unchanged; QR2 expression, mean ± SEM (vehicle = 1) (listed as NG800): 1.182 ± 0.137
